The values that follow are results of earlier work, collected in patent US20050196503A1, “High-intensity sweetener-polyol compositions” (priority 2004, published 2005).

Residues, ends and D or L forms follow the SMILES beside them.

The conditions of the data set: for sweetness strength or sweetening potency, times that of sucrose: in terms of weight ratio; for Approximate sweetness (sucrose = 1): relative to sucrose, weight basis; for sweetness relative to sucrose: percent of the sweetness of sucrose.

Consider `CC1=CC(=O)[N-]S(=O)(=O)O1.[K+]` [Acesulfame-K], for which the “sweetness strength or sweetening potency, times that of sucrose” value (“sweetness strength or sweetening potency” for short) is “about 200 times” and the “Approximate sweetness (sucrose = 1)” value is 200.

With `COC(=O)[C@H](Cc1ccccc1)NC(=O)[C@@H](N)CC(=O)O` [Aspartame] (H-Asp-Phe-OMe), the “sweetness strength or sweetening potency” value is listed as “about 180 times” and the “Approximate sweetness (sucrose = 1)” value is reported as 180.

`OC[C@@H](O)[C@@H](O)CO` [Erythritol]: the “Approximate sweetness (sucrose = 1)” value is recorded as 0.7.

Take `OC[C@@H](O)[C@@H](O[C@@H]1O[C@H](CO)[C@H](O)[C@H](O)[C@H]1O)[C@H](O)[C@@H](O)CO` [Lactitol]: the “Approximate sweetness (sucrose = 1)” value is 0.4.

Turning to `OC[C@@H](O)[C@@H](O[C@H]1O[C@H](CO)[C@@H](O)[C@H](O)[C@H]1O)[C@H](O)[C@@H](O)CO` [Malitol, maltitol], the “sweetness relative to sucrose” value is listed as 90% and the “Approximate sweetness (sucrose = 1)” value is 0.9.

On to `OC[C@@H](O)[C@@H](O)[C@H](O)[C@H](O)CO` [Mannitol], for which the “Approximate sweetness (sucrose = 1)” value was 0.7.

On to `COC(=O)[C@H](Cc1ccccc1)NC(=O)[C@H](CC(=O)O)NCCC(C)(C)C` [Neotame], for which the “sweetness strength or sweetening potency” value is on record as ~10,000 times and the “Approximate sweetness (sucrose = 1)” value is 8,000.

With `O=C1NS(=O)(=O)c2ccccc21` [Saccharin], the “Approximate sweetness (sucrose = 1)” value is listed as 300.

As for `OC[C@@H](O)[C@@H](O)[C@H](O)[C@@H](O)CO` [Sorbitol], the “Approximate sweetness (sucrose = 1)” value was 0.6.

Consider `OC[C@H]1O[C@H](O[C@]2(CCl)O[C@H](CCl)[C@@H](O)[C@@H]2O)[C@H](O)[C@@H](O)[C@H]1Cl` [Sucralose], for which the “Approximate sweetness (sucrose = 1)” value was 600.

Consider `OC[C@@H](O)[C@H](O)[C@@H](O)CO` [Xylitol], for which the “sweetness relative to sucrose” value is 100% and the “Approximate sweetness (sucrose = 1)” value was 1.0.

As to Isomalt [Isomalt (platinit)], the “Approximate sweetness (sucrose = 1)” value is reported as 0.45-0.65.
